Assays:
human GHS-R 1a = biological target: T1, human GHS-R 1a (Homo sapiens, UniProt Q92847); assay: GHS-R 1a receptor-ligand binding assay (membrane preparations from transfected LLC PK-1 cells); conditions: displacement of 125I-His9-ghrelin (60 pM); membranes of LLC PK-1 cells transfected with human GHS-R 1a; mean of at least two independent experiments in triplicates
T1 construct: expressed in transfected cells; host or cells: LLC PK-1 porcine renal epithelial cells (ECACC No. 86121112), isolated plasma membranes
T1 sequence (Q92847 whole entry): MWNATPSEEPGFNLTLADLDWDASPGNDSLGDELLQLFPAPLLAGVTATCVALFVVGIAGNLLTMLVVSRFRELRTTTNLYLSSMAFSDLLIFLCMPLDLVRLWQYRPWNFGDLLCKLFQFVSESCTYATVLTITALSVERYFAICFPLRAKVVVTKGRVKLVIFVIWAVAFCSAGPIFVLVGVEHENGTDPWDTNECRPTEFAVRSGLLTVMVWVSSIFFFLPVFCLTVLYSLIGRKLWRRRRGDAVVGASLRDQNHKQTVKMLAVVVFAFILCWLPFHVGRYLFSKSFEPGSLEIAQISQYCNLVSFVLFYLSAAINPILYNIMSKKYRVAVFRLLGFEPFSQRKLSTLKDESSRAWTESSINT
Outline: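 Membranes from LLC PK-1 cells expressing human GHS-R 1a incubated 60 min at 25 °C in 50 mM Tris pH 7.3, 5 mM MgCl2, 2.5 mM EDTA, bacitracin with 60 pM 125I-ghrelin and competitor; nonspecific binding with 10^-6 M ghrelin; filtration read-out.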

[1] = test system: GH concentration in the plasma of male rat pups; assay: In vivo GH concentration in the plasma of male rat pups; set-up: species or system rat (Sprague-Dawley); conditions: rat pup plasma, killed 15 min later
Method: IV) Assaying In Vivo GH Concentration in the Plasma of Male Rat Pups
GH plasma concentrations of male rat pubs were assayed to characterize the modulation effect (antagonistic or agonistic) of the compounds of the invention being GHS receptor analogue ligands.
In principle, assaying in vivo GH concentration in rat plasma was performed according to Torsello et al. (Eur. J. Pharmacol. 1998, 360: 123-129).
Male Sprague-Dawley rat pups (Charles River, Calco, Italy) were separated on postnatal day seven from their mothers and randomly redistributed to the dams, so that each one nurtured ten to twelve pups. On postnatal day ten, the pups were again separated from their mothers.
The compounds to be tested were dissolved in solvent [DMSO (0.4% of total volume), distilled water (4% of total volume), brought to the final volume with physiological saline].
One hour after separation from their mothers, the pups were given isovolumetric amounts of the compounds to be tested (160 μg/kg body weight s.c.) at time −10 min and then administered with hexarelin (80 μg/kg body weight s.c.) or solvent at time 0 min before being killed 15 min later by decapitation. Trunk blood was collected, immediately centrifuged and plasma samples were stored at −20° C. until assayed for the determination of GH concentrations.
Plasma GH concentrations were measured using a rat growth hormone enzyme immunoassay kit (SPIbio, France, cat. no. 589601) according to the manufacturer's instructions. Values are expressed in terms of NIDDK rat-GH-RP2 standard (potency 2 IU/mg) as ng/mL of plasma
The limit of detection calculated as the concentration producing 15% displacement of initial tracer was 0.5 ng/ml; intra-assay and inter-assay coefficient of variation are 4% (n=24) and 14% (n=9).
In the following table 3 results obtained for selected compounds of the invention are presented.

[2] = test system: young-adult male Sprague-Dawley rats; assay: Feeding behavior (food intake) of young-adult male rats; type: in vivo, rat (Sprague-Dawley)
Method: V) Assaying the Feeding Behavior (Food Intake) of Young-Adult Male Rats
The impact of compounds of the invention being GHS receptor analogue ligands on the feeding behaviour, i.e. food intake, of young-adult male rats was assayed.
In principle, assaying the feeding behavior (food intake) of young-adult male rats was performed according to Torsello et al. (Eur. J. Pharmacol. 1998, 360: 123-129).
For the assay, young-adult male Sprague-Dawley rats (Charles River, Calco, Italy), weighing 200-250 g, were used.
Rats had 1 week of acclimation in individual home cages, and animal room conditions (22±2° C., 65% humidity, artificial light from 08.00 to 20.00 h). The following week, they were daily trained to mimic the experimental procedure. Rats maintained free access to dry pellets and tap water throughout the whole experimental period. At the end of training, rats were administered (around 10.00-11.00 a.m.) subcutaneously with the compounds to be tested (160 μg/kg body weight) and/or hexarelin (80 μg/kg body weight) and/or solvent [DMSO (0.4% of total volume), distilled water (4% of total volume), brought to the final volume with physiological saline].
Hexarelin was used to study the effects of the compounds to be tested on stimulated feeding behavior. Immediately after the injections, the animals were returned to their home cages, which contained a known amount of standard rat chow and ad libitum water. Every hour for the following 6 hours, the remaining food was carefully collected and weighed to the nearest 0.1 g. Food intake was normalized for the body weight of the rats and expressed as grams of food eaten per 100 g body weight of rats.
In the following table 4 results obtained for selected compounds of the invention are presented.

[3] = biological target: T2, Motilin-Receptor 1a (MTL-R1a) (Homo sapiens, UniProt O43193); assay: Motilin receptor-ligand binding assay (human recombinant HEK-293 cells); conditions: 0.1 nM [125I] Motilin, read-out: MTL-R 1a IC50
T2 construct: expressed in transfected cells; host or cells: HEK-293 cells
T2 sequence (O43193 whole entry): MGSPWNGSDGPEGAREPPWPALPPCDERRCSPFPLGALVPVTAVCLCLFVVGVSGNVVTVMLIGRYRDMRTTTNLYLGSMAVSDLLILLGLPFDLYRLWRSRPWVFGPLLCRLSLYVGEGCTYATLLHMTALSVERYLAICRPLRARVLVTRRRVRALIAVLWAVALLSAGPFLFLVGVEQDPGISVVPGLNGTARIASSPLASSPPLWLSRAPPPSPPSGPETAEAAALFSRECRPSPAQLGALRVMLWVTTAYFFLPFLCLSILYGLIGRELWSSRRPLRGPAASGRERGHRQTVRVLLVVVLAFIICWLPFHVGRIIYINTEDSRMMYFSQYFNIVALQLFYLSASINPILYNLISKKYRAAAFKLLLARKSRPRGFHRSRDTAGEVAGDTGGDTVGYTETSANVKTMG
Method: VI) Motilin Receptor-Ligand Binding Assay (Using Human Recombinant HEK-293 Cells)
Motilin Receptor binding/affinity studies were performed as described by Feighner S D et al. (Science 1999, 284: 2184-2188). The assays were run under the following conditions:
Compounds of the invention were tested in concentrations comprising 0.01 μM, 0.1 μM, 1 μM and 10 μM.
IC50 values were determined by a non-linear, least square regression analysis using Data Analysis Toolbox (MDL Information Systems, USA).
In the following table 5 results obtained for selected compounds of the invention are presented.

[4] = compound 160 μg/kg s.c. at -10 min + hexarelin 80 μg/kg s.c. at 0 min
[5] = compound alone 160 μg/kg body weight s.c. at -10 min, solvent at 0 min
[6] = compound 160 μg/kg s.c. + hexarelin 80 μg/kg s.c.
[7] = compound alone, 160 μg/kg body weight s.c.

| Compound | IC50 (human GHS-R 1a) [nM] | GH concentration [1, 4] [ng/mL] | GH concentration [1, 5] [ng/mL] | Cumulative food intake (after 2 hours) [2, 6] [g food/100 g body weight] | Cumulative food intake (after 6 hours) [2, 6] [g food/100 g body weight] | Cumulative food intake (after 2 hours) [2, 7] [g food/100 g body weight] | Cumulative food intake (after 6 hours) [2, 7] [g food/100 g body weight] | IC50 [3] [nM] |
| --- | --- | --- | --- | --- | --- | --- | --- | --- |
| COc1ccc(Cn2c(CCc3ccccc3)nnc2[C@@H](Cc2c[nH]c3ccccc23)NC(=O)c2ccccn2)c(OC)c1 [compound 64, (R)—N-(1-(4-(2,4-dimethoxybenzyl)-5-phenethyl-4H-1,2,4-triazol-3-yl)-2-(1H-indol-3-yl)ethyl)picolinamide] | 1.1 | 138.394 ± 14.580 | 13.056 ± 2.169 | 0.012 ± 0.004 | 0.021 ± 0.007 | 0.012 ± 0.008 | 0.039 ± 0.011 | 1390 |
| COc1ccc(Cn2c(CCc3c[nH]c4ccccc34)nnc2[C@@H](Cc2c[nH]c3ccccc23)NC(=O)C(C)(C)N)c(OC)c1 [compound 1, (R)—N-(1-(5-(2-(1H-indol-3-yl)ethyl)-4-(2,4-dimethoxybenzyl)-4H-1,2,4-triazol-3-yl)-2-(1H-indol-3-yl)ethyl)-2-amino-2-methylpropanamide] | 160 | 80.22 ± 18.66 |  | 0.06 ± 0.02 | 0.33 ± 0.21 | 0.02 ± 0.002 | 0.06 ± 0.03 |  |
| COc1ccc(Cn2c(CCc3c[nH]c4ccccc34)nnc2[C@@H](Cc2c[nH]c3ccccc23)NC(=O)[C@H]2CCCN2)cc1 [compound 90, (R)—N—((R)-1-(5-(2-(1H-indol-3-yl)ethyl)-4-(4-methoxybenzyl)-4H-1,2,4-triazol-3-yl)-2-(1H-indol-3-yl)ethyl)pyrrolidine-2-carboxamide] | 28 | 218.844 ± 19.723 | 16.857 ± 2.152 | 0.054 ± 0.041 | 0.069 ± 0.041 | 0.014 ± 0.001 | 0.035 ± 0.003 |  |
| COc1ccc(Cn2c(CCc3ccccc3)nnc2[C@@H](Cc2c[nH]c3ccccc23)NC(=O)C(C)(C)N)cc1 [compound 20, (R)—N-(1-(4-(4-methoxybenzyl)-5-phenethyl-4H-1,2,4-triazol-3-yl)-2-(1H-indol-3-yl)ethyl)-2-amino-2-methylpropanamide] | 14 | 220.51 ± 15.52 | 5.27 ± 0.59 | 0.53 ± 0.21 | 0.63 ± 0.19 | 0.01 | 0.2 ± 0.19 |  |
| CC(C)(N)C(=O)N[C@H](Cc1c[nH]c2ccccc12)c1nnc(CCCc2c[nH]c3ccccc23)n1Cc1ccccc1 [compound 9, (R)—N-(1-(5-(3-(1H-indol-3-yl)propyl)-4-benzyl-4H-1,2,4-triazol-3-yl)-2-(1H-indol-3-yl)ethyl)-2-amino-2-methylpropanamide] | 46 | 183.562 ± 16.729 | 13.016 ± 1.960 | 0.0104 ± 0.0032 | 0.0231 ± 0.0032 | 0.01 ± 0 | 0.01 ± 0 |  |
| COc1ccc(Cn2c(CCc3ccccc3)nnc2[C@@H](Cc2c[nH]c3ccccc23)NC(=O)[C@H]2CCCN2)cc1 [compound 47, (R)—N—((R)-1-(4-(4-methoxybenzyl)-5-phenethyl-4H-1,2,4-triazol-3-yl)-2-(1H-indol-3-yl)ethyl)pyrrolidine-2-carboxamide] | 27 | 160.857 ± 13.52 | 5.658 ± 1.192 | 0.35 ± 0.201 | 0.47 ± 0.1943 | 0.006 ± 0.002 | 0.02 ± 0 |  |
| COc1ccc(Cn2c(CCc3c[nH]c4ccccc34)nnc2[C@@H](Cc2c[nH]c3ccccc23)NC(=O)C(C)(C)N)cc1 [compound 12, (R)—N-(1-(5-(2-(1H-indol-3-yl)ethyl)-4-(4-methoxybenzyl)-4H-1,2,4-triazol-3-yl)-2-(1H-indol-3-yl)ethyl)-2-amino-2-methylpropanamide] | 6 | 200.0 ± 19.7 | 4.0 ± 0.12 | 0.13 ± 0.07 | 0.48 ± 0.22 | 0.034 ± 0.011 | 0.06 ± 0.019 |  |
| COc1ccc(Cn2c(CCc3c[nH]c4ccccc34)nnc2[C@@H](Cc2c[nH]c3ccccc23)NC(=O)c2cnccn2)c(OC)c1 [compound 71, (R)—N-(1-(5-(2-(1H-indol-3-yl)ethyl)-4-(2,4-dimethoxybenzyl)-4H-1,2,4-triazol-3-yl)-2-(1H-indol-3-yl)ethyl)pyrazine-2-carboxamide] | 19 | 173.611 ± 18.444 | 15.326 ± 1.355 | 0.117 ± 0.074 | 0.20 ± 0.01 | 0.522 ± 0.283 | 0.53 ± 0.28 |  |

From patent US8710089B2, “Triazole derivatives as ghrelin analogue ligands of growth hormone secretagogue receptors” (Zentaris GmbH, priority 2005, dated 2014)
